# Values of other authors as cited in patent US20140010866A1, “METHODS AND SYSTEMS FOR TREATMENT OF MIGRAINES AND OTHER INDICATIONS” (Strategic Science & Technologies, LLC, priority 2010, published 2014).
row,Structure (SMILES),pKa
1,CN(C)CCc1c[nH]c2ccc(CS(=O)(=O)N3CCCC3)cc12 [almotriptan],8.77
2,CC(C)C[C@H]1C(=O)N2CCC[C@H]2[C@]2(O)O[C@](NC(=O)[C@@H]3C=C4c5cccc6[nH]c(Br)c(c56)C[C@H]4N(C)C3)(C(C)C)C(=O)N12 [bromocriptine],11.13
3,CC(C)[C@H]1C(=O)N2CCC[C@H]2[C@]2(O)O[C@@](C)(NC(=O)[C@@H]3C=C4c5cccc6[nH]cc(c56)C[C@H]4N(C)C3)C(=O)N12 [ergovaline],11.64

# Other lines, results leading:
row,pKa,Structure (SMILES)
1,17.27,CN[C@@H]1CCc2[nH]c3ccc(C(N)=O)cc3c2C1 [frovatriptan]
2,17.11,CNS(=O)(=O)CCc1ccc2[nH]cc(C3CCN(C)CC3)c2c1 [naratriptan]
3,17.15,CN(C)CCc1c[nH]c2ccc(C[C@H]3COC(=O)N3)cc12 [zolmitriptan]
